Measured values taken from patent US20130123386A1, “HINDERED PRIMARY CHLORINATED AMINE IN A LATEX FORMULATION” (ROHM AND HAAS COMPANY, priority 2011, published 2013).

Key:
[1] = system: standard industrial inoculum; experiment: Preservative efficacy (challenge) testing of latex binder samples, growth rating of streaked TSA plates; type: cell-based
Method: The samples prepared in accordance with Examples 1-4 and Comparative Example 1 were subjected to preservative efficacy testing in accordance with the following procedure:
A 1-g aliquot was removed from each sample and submitted for biocide analysis by a standard HPLC procedure to check the amount of isothiazolone microbicide dosed. The samples were then dosed with the standard industrial inoculum at a level of 0.1 mL/10 g.
All bacteria and yeast were stored at −70° C. to −80° C. in broth and glycerol (15%) prior to inoculum preparation. Molds were maintained on potato dextrose agar (PDA) plates at 2-5° C. The bacteria and yeast cultures were thawed and 0.1-mL aliquots of each were transferred into separate 10-mL aliquots of tryptic soy broth (TSB). These cultures were incubated at 30° C. for 18-24 h, with shaking at 150-200 rpm.
A volume of 10 mL of sterile phosphate buffer was measured out. The two mold strains were added by wetting sterile swabs in phosphate buffer, or water, and then rolling the swabs over the molds, covering an area of approximately 1 in^2 on each plate. The mold-covered swabs were then immersed in the 10 mL of phosphate buffer and agitated to suspend the spores. A volume of 0.1 mL of each bacterial culture, and a volume of 1 mL of each yeast culture, was then added to the mold mixture. The inoculum was blended by vortexing briefly. The organisms used in the inoculum and their corresponding American Type Culture Collection numbers (ATCC #) are shown in Table 1.
Samples were inverted several times to mix in the microorganisms. This inoculation challenged each test sample with 10^6-10^7 colony forming units/mL latex. Using a 10-μL sterile loop, latex samples were streaked onto tryptic soy agar (TSA) plates. This procedure was carried at t=0 and at several other time points during the first ˜5 h of the experiment to obtain speed-of-kill data. Additional time points were taken at t=1, 2 and 7 days. Between time points, all samples were stored at 30° C. In addition, all streaked TSA plates were incubated at 30° C. […]

[2] = Heat aging of amine/latex binder preparation at 50° C. for 14 days, concentration by GC; type: physicochemical; conditions: latex binder
Method: A 20.0-g dispersion of N-chloro-2,4,4-trimethylpentan-2-amine, 18% sodium lauryl sulfate, and water (C1-TOA, 0.47 g; SLS, 1.29 g; H2O, 18.24.g) with a particle size in the range of 100 to 850 nm was added to a butyl acrylate/methyl methacrylate/methacrylic acid latex binder (180 g; 50/49/1 percentages by weight) stabilized by SLS (1 weight percent) and Disponil FES 32 emulsifier (1 weight percent). The Cl-TOA/binder preparation was heat aged at 50° C. for 14 days. The concentration of Cl-TOA prior to the heat aging step was 2350 ppm (14 mM). The concentration of Cl-TOA after the heat-aging step was measured by GC to be ˜160 ppm based on the volume of the binder.
The procedures were carried out substantially as described for Example 1 except that, after heat-aging, a diluted sample of KATHON™ LX Microbicide Concentrate (A Trademark of The Dow Chemical Company or Its Affiliates) was mixed in with the binder/Cl-TOA preparation by shaking the samples at 200 rpm for 20 min, giving a final dosage of ˜5 ppm active. The concentration of Cl-TOA after the heat-aging step was measured by GC to be ˜160 ppm based on the volume of the binder.
The procedure of Example 2 was repeated except that the constituents of the added dispersion were Cl-TOA (0.19 g), SLS (0.52 g), and water (19.29 g). The concentration of Cl-TOA after the heat-aging step was estimated to be ˜65 ppm based on the volume of the binder.
(TOA, 0.38 g; SLS, 1.06 g; H2O, 18.56 g) with a particle size in the range of 100 to 850 nm was added to a butyl acrylate/methyl methacrylate/methacrylic acid latex binder (180 g; 50/49/1 percentages by weight) stabilized by SLS (1 weight percent) and Disponil FES 32 emulsifier (1 weight percent). The TOA/binder preparation was heat aged at 50° C. for 14 days. The concentration of TOA before heat aging was 1900 ppm (14 mM), and GC measurements indicated no change in TOA concentration as a result of heat aging. […]

| SMILES | Biocidal activity ([1]; TOA itself) | Effect as an adjuvant for the biocide ([1]; with KATHON LX, compared to the microbiocide alone (Comp. Ex. 1)) | Change in TOA concentration as a result of heat aging ([2]; 1900 ppm (14 mM) before heat aging, GC (Example 4)) | Efficacy as a quick-kill preservative ([1]; alone or in combination with the KATHON LX Microbicide, heat-aged latex binder) | Concentration of Cl-TOA after the heat-aging step (estimated) ([2]; 940 ppm (6 mM) before heat aging, estimated, based on the volume of the binder (Example 3)) | Concentration of Cl-TOA after the heat-aging step ([2]; 2350 ppm (14 mM) before heat aging, measured by GC, based on the volume of the binder (Examples 1 and 2)) |
| --- | --- | --- | --- | --- | --- | --- |
| CC(C)(C)CC(C)(C)N [TOA, 2,4,4-trimethylpentan-2-amine] | little or no biocidal activity | effective as an adjuvant | no change | – | – | – |
| CC(C)(C)CC(C)(C)NCl [Cl-TOA, N-chloro-2,4,4-trimethylpentan-2-amine] | – | – | – | effective | ~65 ppm | ~160 ppm |
